Assay [1] concerns the target FabB (ketosynthase) (Escherichia coli, UniProt P0A953). Format: binding.
Assay [2] concerns the target FabF (ketosynthase) (Escherichia coli, UniProt P0AAI5). Format: binding.

The structures appear in SMILES notation.

For orientation: IC50 means the concentration that gives 50% inhibition. Read a high IC50 as lower potency.

FabF (ketosynthase), sequence (P0AAI5 2-413): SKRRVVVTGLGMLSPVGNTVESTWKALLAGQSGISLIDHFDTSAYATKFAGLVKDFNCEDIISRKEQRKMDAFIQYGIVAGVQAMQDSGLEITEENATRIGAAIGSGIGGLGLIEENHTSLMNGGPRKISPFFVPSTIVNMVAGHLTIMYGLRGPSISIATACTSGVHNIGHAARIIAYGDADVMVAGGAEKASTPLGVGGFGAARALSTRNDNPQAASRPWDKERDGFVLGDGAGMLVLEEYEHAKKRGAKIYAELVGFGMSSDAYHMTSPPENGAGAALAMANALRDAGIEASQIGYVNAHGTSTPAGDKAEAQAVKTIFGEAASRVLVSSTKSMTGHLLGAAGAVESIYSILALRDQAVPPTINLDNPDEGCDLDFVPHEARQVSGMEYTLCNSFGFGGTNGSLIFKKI
FabF (ketosynthase), sequence (P0A6A8 2-78 partner): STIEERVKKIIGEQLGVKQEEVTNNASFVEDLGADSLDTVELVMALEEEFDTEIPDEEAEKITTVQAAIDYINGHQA
FabB (ketosynthase), sequence (P0A953 whole entry): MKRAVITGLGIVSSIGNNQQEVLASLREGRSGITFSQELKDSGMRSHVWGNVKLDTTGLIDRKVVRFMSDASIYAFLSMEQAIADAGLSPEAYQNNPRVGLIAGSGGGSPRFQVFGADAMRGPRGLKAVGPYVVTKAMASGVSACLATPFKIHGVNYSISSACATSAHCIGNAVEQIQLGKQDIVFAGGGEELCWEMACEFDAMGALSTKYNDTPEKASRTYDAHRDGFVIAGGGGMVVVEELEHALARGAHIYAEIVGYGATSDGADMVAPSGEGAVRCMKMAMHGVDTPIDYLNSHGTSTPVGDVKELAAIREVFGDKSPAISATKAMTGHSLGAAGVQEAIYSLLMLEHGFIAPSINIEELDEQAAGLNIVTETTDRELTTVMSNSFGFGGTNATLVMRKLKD
FabB (ketosynthase), sequence (P0A6A8 2-78 partner): as the sequence (P0A6A8 2-78 partner) above

On to `C/C=C/C/C=C/CCC(=O)[C@H]1O[C@H]1C(N)=O` [cerulenin], for which the IC50 in assay [1] was roughly 22.5 µM; in assay [2] it was roughly 21.1 µM.

Values taken from PMC11575542 (Chemical Science, 2024).
